This is an account of results in patent US20200369728A1, “PEPTIDOMIMETIC MACROCYCLES AND USES THEREOF” (Aileron Therapeutics, Inc., priority 2015, published 2020).

In assay [1] the test system is SJSA-1. Description: Cell viability assay (MTT), SJSA-1. As to conditions: read-out: SJSA-1 EC50 (72 h); 72 h, MTT.
In assay [2] the test system is SJSA-1 cells. As to the kind of experiment: Cell lysis by peptidomimetic macrocycles (LDH release). As to conditions: SJSA-1, 1 h. Type of assay: cell-based. In short, it runs like this: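 Membrane lysis measured as supernatant LDH after a 1 h, 37 °C exposure of SJSA-1 cells, held in RPMI with 1% FBS, to macrocycles at final 6.25-50 μM with 0.5% DMSO. Lytic references were 10 μM melittin and 1% Triton X-100; DMSO alone served as non-lytic control.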

Assay [3] deals with RKO. As to the kind of experiment: Cell viability assay (MTT), RKO. As to conditions: read-out: RKO EC50 (72 h).
Assay [4] relates to Caspase 3. As to the kind of experiment: Caspase 3 detection assay in SJSA1 cells. Type of assay: cell-based. As to conditions: SJSA1, 48 h, Caspase 3 activation over DMSO-treated cells.

As to `CCCC[C@H](NC(=O)[C@H](C)NC(=O)[C@H](C)NC(=O)[C@]1(C)CCCC=CCCCCCC[C@@](C)(NC(=O)[C@H](Cc2ccccc2)NC(=O)[C@@H](NC(=O)[C@H](CC(C)C)NC(C)=O)[C@@H](C)O)C(=O)N[C@@H](C)C(=O)N[C@@H](Cc2ccc(O)cc2)C(=O)N[C@@H](Cc2c[nH]c3ccccc23)C(=O)N[C@@H](C)C(=O)N[C@@H](CCC(N)=O)C(=O)N[C@@H](CC(C)C)C(=O)N1)C(=O)N[C@H](C)C(N)=O` (single isomer, unassigned) [compound 75], in assay [1], the EC50 was less than 5 µM. In assay [2], the “6.25 μM % Lysed cells (1 h LDH)” value is on record as −1%, the “25 μM % Lysed cells (1 h LDH)” value was determined as 1% and the “50 μM % Lysed cells (1 h LDH)” value turned out to be 1%.

In the case of `CC[C@H](C)[C@H](NC(=O)[C@H](C)NC(=O)[C@H](C)NC(=O)[C@]1(C)CCCC=CCCCCCC[C@@](C)(NC(=O)[C@H](Cc2ccccc2)NC(=O)[C@@H](NC(=O)[C@H](CC(C)C)NC(C)=O)[C@@H](C)O)C(=O)N[C@@H](C)C(=O)N[C@@H](Cc2ccc(O)cc2)C(=O)N[C@@H](Cc2c[nH]c3ccccc23)C(=O)N[C@@H](C)C(=O)N[C@@H](CCC(N)=O)C(=O)N[C@@H](CC(C)C)C(=O)N1)C(=O)N[C@@H](C)C(N)=O` (single isomer, unassigned) [compound 65], the EC50 in assay [3] lay within 5 to 15 µM. In assay [4], the “caspase 0.3 μM” value came to 1, the “caspase 3 μM” value came to 6, the “caspase 10 μM” value is 28 and the “caspase 30 μM” value turned out to be 34. Moreover, in assay [1], the EC50 was less than 5 µM. In assay [2], the “6.25 μM % Lysed cells (1 h LDH)” value is reported as 0%, the “25 μM % Lysed cells (1 h LDH)” value is 0% and the “50 μM % Lysed cells (1 h LDH)” value turned out to be 2%.

For `CC[C@H](C)[C@H](NC(=O)[C@H](C)NC(=O)[C@H](C)NC(=O)[C@]1(C)CCCC=CCCCCCC[C@@](C)(NC(=O)[C@H](Cc2ccccc2)NC(=O)[C@@H](NC(=O)[C@H](CC(C)C)NC(C)=O)[C@@H](C)O)C(=O)N[C@@H](C)C(=O)N[C@@H](Cc2ccc(O)cc2)C(=O)N[C@@H](Cc2c[nH]c3ccccc23)C(=O)N[C@@H](C)C(=O)N[C@@H](CCC(N)=O)C(=O)N[C@@H](CC(C)C)C(=O)N1)C(=O)N[C@H](C)C(N)=O` (single isomer, unassigned) [compound 70], the concentration giving a half-maximal response (EC50) in assay [3] was less than 5 µM. For the same compound, in assay [4], the “caspase 3 μM” value came to 1, the “caspase 10 μM” value is listed as 9 and the “caspase 30 μM” value was found to be 26. Moreover, the EC50 in assay [1] is less than 5 µM.

With `CC(=O)N[C@@H](CC(C)C)C(=O)N[C@H](C(=O)N[C@@H](Cc1ccccc1)C(=O)N[C@]1(C)CCCCCC/C=C/CCC[C@@](C)(C(=O)N[C@@H](C)C(=O)N[C@@H](C)C(=O)N[C@@H](C)C(=O)N[C@@H](C)C(=O)N[C@@H](C)C(=O)N[C@H](C)C(N)=O)NC(=O)[C@H](CC(C)C)NC(=O)[C@H](CCC(N)=O)NC(=O)[C@H](C)NC(=O)[C@H](Cc2c[nH]c3ccccc23)NC(=O)[C@H](Cc2ccc(O)cc2)NC(=O)[C@H](CCC(=O)O)NC1=O)[C@@H](C)O` [compound 331], in assay [3], the EC50 is less than 5 µM. Besides, in assay [4], the “caspase 0.3 μM” value is listed as 4.5, the “caspase 3 μM” value is 11, the “caspase 10 μM” value is 14.5 and the “caspase 30 μM” value is 30.5. Besides, the “caspase 1 μM” value in assay [4] (1 μM) is 8. In addition, the EC50 in assay [1] is less than 5 µM. Moreover, in assay [2], the “6.25 μM % Lysed cells (1 h LDH)” value was 0%, the “25 μM % Lysed cells (1 h LDH)” value stood at 0% and the “50 μM % Lysed cells (1 h LDH)” value was 0%.
